Source: PMC5310922, “A high-throughput phenotypic screen identifies clofazimine as a potential treatment for cryptosporidiosis” (PLoS Neglected Tropical Diseases, 2017)
Read-outs that look alike come from different tables or passages of the source.

Tests used:
Cryptosporidium parvum = test: C. parvum proliferation in HCT-8 cells, 48 h high-content imaging assay; type: cell-based, Cryptosporidium parvum (Iowa strain); conditions: for EC50: 48 h; for EC99 against C. parvum: concentration used in washout assay
[1] = system: Cryptosporidium hominis (TU502); test: C. hominis proliferation in HCT-8 cells, 48 h high-content imaging assay; type: cell-based; conditions: read-out: C. hominis 48H Assay EC50 [µM] (SD; n)
Protocol: Methods for continuous, in vitro cultivation of Cryptosporidium spp. have not been well established. Instead, in vivo oocyst propagation of C. parvum is performed in calves, a more promiscuous Cryptosporidium species for animal and human infections. For C. hominis, gnotobiotic piglets are the primary means of propagation. The calf is the more accessible model, making C. parvum the more convenient species to screen. However, C. hominis is equally clinically relevant with regards to human cryptosporidiosis. […] High purity powders of the 10 filtered C. parvum Bioactives screen hits and both GHCDL screen hits were tested against C. hominis (TU502) to confirm activity against both species.
(§1) Cells were then plated (5 μL/well) into 1536-well assay plates at a density of 5.5×10^5 cells/mL (2,750 cells/well).
C. parvum oocysts (Iowa strain, isolated from infected calves) were purchased from the Sterling Parasitology Laboratory, University of Arizona, and stored at 4°C for ≤ 3 months in an antibiotic solution (0.01% Tween 20 containing 100 U/mL penicillin and 100 μg/mL gentamicin). C. hominis oocysts (TU502, isolated from gnotobiotic piglets) were purchased from the Tzipori Laboratory, Cummings School of Veterinary Medicine, Tufts University, and stored at 4°C for ≤ 2 weeks in an antibiotic solution (100 U/mL penicillin and 100 μg/mL streptomycin). For infection of assay plates, 24 h after cell seeding, oocysts were excysted and prepared for inoculation as previously described. Briefly, the oocysts were diluted into 1 mL pre-warmed 10 mM HCl and then incubated in a 37°C water bath for 10 min. Oocysts were then pelleted at 3,000×g for 1 min in a microcentrifuge (Thermo), and the supernatant was carefully aspirated. Oocysts were resuspended in 2 mM sodium taurocholate in DPBS++ (with 0.9 mM CaCl2 and 0.5 mM MgCl2) and incubated at room temperature for 20 min. After incubation in bile salts, the oocysts were diluted 1:100 and free sporozoites and intact oocysts were enumerated to determine the percentage of excystation.
Plates were then washed twice with phosphate buffered saline (PBS). […] To prevent non-specific binding, the cells were blocked with SuperBlock™ T20 blocking agent (Thermo) for 1 h at room temperature. Cryptosporidium parasites were stained with 1 μg/mL fluorescein isothiocyanate (FITC)-conjugated Vicia villosa lectin (Vector Laboratories) in 1:10 diluted SuperBlock™ in PBS-T, supplemented with 3 μM 4',6-diamidino-2-phenylindole (DAPI) to visualize host cell nuclei. Staining was for 1 h at room temperature in the dark. Finally, cells were washed twice with PBS-T and the plates were sealed with adhesive foil. The plates were imaged with a CellInsight CX5 High Content Screening Platform (Thermo) with a 10× objective. […] The software identified primary objects (HCT-8 host cells) and spots within allowed distances to the nuclei (Cryptosporidium). Both cytotoxicity against HCT-8 cells (number of nuclei relative to DMSO-treated controls) and Cryptosporidium inhibition (spot counts relative to DMSO-treated controls) were assessed.
Images were processed by the HCS Studio Scan software, and Selected Object Count (HCT-8 cells) and Spot Count (Cryptosporidium) were analyzed in Genedata Screener (v13.0-Standard). Spot Count and Selected Object Count were normalized to neutral controls minus inhibitors (floxuridine for Spot Count, and puromycin for Selected Object Count).

in vitro = conditions: human
Protocol: as §1
(§2) Plates were then washed twice with phosphate buffered saline (PBS). […] To prevent non-specific binding, the cells were blocked with SuperBlock™ T20 blocking agent (Thermo) for 1 h at room temperature. Cryptosporidium parasites were stained with 1 μg/mL fluorescein isothiocyanate (FITC)-conjugated Vicia villosa lectin (Vector Laboratories) in 1:10 diluted SuperBlock™ in PBS-T, supplemented with 3 μM 4',6-diamidino-2-phenylindole (DAPI) to visualize host cell nuclei. Staining was for 1 h at room temperature in the dark. Finally, cells were washed twice with PBS-T and the plates were sealed with adhesive foil. The plates were imaged with a CellInsight CX5 High Content Screening Platform (Thermo) with a 10× objective. […] For 1536-well format assays (primary screening, triplicate reconfirmation, and dose-response reconfirmation, one microscopic field (802,511.39 μm^2) per well, and for the 384-well washout assay, 4 fields per well were captured. The software identified primary objects (HCT-8 host cells) and spots within allowed distances to the nuclei (Cryptosporidium). Both cytotoxicity against HCT-8 cells (number of nuclei relative to DMSO-treated controls) and Cryptosporidium inhibition (spot counts relative to DMSO-treated controls) were assessed.
(§3) Images were processed by the HCS Studio Scan software, and Selected Object Count (HCT-8 cells) and Spot Count (Cryptosporidium) were analyzed in Genedata Screener (v13.0-Standard). Spot Count and Selected Object Count were normalized to neutral controls minus inhibitors (floxuridine for Spot Count, and puromycin for Selected Object Count). For single-point primary assay plates, an additional run-wise median correction was applied to reduce screen artifacts (e.g. uneven dispense), whereas no correction was applied to triplicate reconfirmation and dose-response plates. For primary screening, a compound is considered a hit by a ≥ 70% reduction in Corrected Spot Count. Compounds that caused moderate cytotoxicity were filtered out (i.e., excluding all Corrected Selected Object Counts ≤ -60%). Dose-response curves were fit with Genedata Analyzer using the Smart Fit function.

[2] = HEK293T 72 h cytotoxicity (CellTiter-Glo); type: cell-based, human; conditions: human
Protocol: (§4) Two mammalian cell lines were used for counter-screening for general cytotoxicity of hit compounds: human embryonic kidney cells (HEK293T; ATCC CRL-3216) and human hepatocellular carcinoma cells (HepG2; ATCC HB-8065). […] Compounds were pre-spotted into tissue culture-treated white solid-bottomed 1536-well plates (Greiner) in a 1:3 dose-response dilution (top concentration 20 μM). HEK293T and HepG2 cells were diluted to 75×10^3 cells/mL and 150×10^3 cells/mL, respectively, and 5 μL/well were dispensed into assay plates with a MultiFlo FX Multi-Mode Dispenser (Biotek). […] At the completion of the assay, CellTiter-Glo (Promega) was prepared at 1:2 (reagent:water) of the manufacturer’s instructions, and 2 μL were dispensed into each well. After a 5 min incubation at room temperature, luminescence readings were measured with an EnVision Multilabel Plate Reader (Perkin Elmer). […] were uploaded into Genedata Screener (v13.0-Standard), and data normalized to DMSO- and puromycin-treated wells. A four-parameter non-linear regression curve fit was applied to dose-response data using Genedata to determine the half maximal cytotoxic concentration (CC50) of each compound.

[3] = HepG2 72 h cytotoxicity (CellTiter-Glo); type: cell-based, human; conditions: human
Protocol: as §4

C. parvum [4] = test: Host cell 3-h pre-treatment, with or without wash, then C. parvum infection; type: cell-based, Cryptosporidium parvum; conditions: for EC50: Cryptosporidium parvum, host cells pretreated 3 h, C. parvum, 48 hpi
Protocol: A set of parallel wells were also treated and not washed prior to infection. 48 hpi, infected cells were imaged as described above, and EC50s for each compound pre- and post-wash were determined.

C. parvum [5] = test: Washout assay: 3-h treatments over the asexual life cycle of C. parvum
Protocol: We examined short, three-hour compound treatments of in vitro cultures, followed by compound washout, that covered the complete asexual life cycle, believed to be 13–15 h post invasion [36]. […] The treatment interval lasted 3 h before washout with fresh medium; infected cells were allowed to grow until 48 h post infection before fixation. […] As CFZ is very lipophilic, we sought to determine whether intracellular accumulation was affecting the strong inhibition across each time point.
Infected cells were treated in six 3-h increments over the course of 15 h (the presumed in vitro asexual lifecycle of C. parvum). HCT-8 cells were seeded (25 μL/well) into clear-bottomed 384-well plates (Greiner) at a density of 6.0×10^5 cells/mL (15,000 cells/well) in assay medium, and allowed to grow 24 h at 37°C with 5% CO2 in a humidified tissue culture incubator, covered with a custom metal lid (The Genomics Institute of the Novartis Research Foundation) to reduce evaporation. After 24 h, and 2 h before infecting with C. parvum oocysts (time -2 hpi), the treatment time course was initiated. […] DMSO was used as a negative control. Cell medium was removed from designated wells and replaced with medium containing either compound or DMSO. […] Plates were then spun at 150×g for 3 min, and kept at 37°C with 5% CO2 in a humidified tissue culture incubator during drug treatment intervals. At the end of each 3 h time point, infected cells were carefully washed three times with fresh, pre-warmed assay medium, and the next set of wells for the subsequent time point were treated. The final time point extended to 18 h, to cover re-invasion of merozoites into new HCT-8 cells. After the final compound treatment was washed off, infected cells were allowed to grow until 48 h post infection.

HCT-8 (Host cells) = test: in vitro
Protocol: as §1, §2, §3

HEK293T = HEK293T 72 h cytotoxicity (CellTiter-Glo); type: cell-based, human
Protocol: as §4

HepG2 = HepG2 72 h cytotoxicity (CellTiter-Glo); type: cell-based, human
Protocol: as §4

[6] = Cryptosporidium parvum, HCT-8 cells, read-out: EC50 against C. parvum
[7] = Cryptosporidium parvum, in HCT-8 cells, value (SD; n), read-out: C. parvum 48H Assay EC50 [µM] (SD; n)
[8] = Cryptosporidium hominis, in HCT-8 cells, 48 h, value (SD; n)
[9] = HEK293T cells, 72 h, value (SD; n), read-out: HEK293T 72H Cytotoxicity CC50 [µM] (SD; n)
[10] = HepG2 cells, 72 h, value (SD; n), read-out: HepG2 72H Cytotoxicity CC50 [µM] (SD; n)
[11] = 72 h, value (SD; n), read-out: HEK293T 72H Cytotoxicity CC50 [µM] (SD; n)
[12] = 72 h, value (SD; n), read-out: HepG2 72H Cytotoxicity CC50 [µM] (SD; n)
[13] = in HCT-8 cells, value (SD; n), read-out: C. parvum 48H Assay EC50 [µM] (SD; n)
[14] = in HCT-8 cells, 48 h, value (SD; n)
[15] = read-out: HCT-8 (Host cells) 48H Assay CC50 [µM] (SD; n), 48 h, value (SD; n)

| Compound | EC50 (Cryptosporidium parvum; [6]) | EC50 (Cryptosporidium parvum; [7]) | EC50 [1, 8] | CC50 at 48 h (in vitro; HCT-8 cells) | CC50 at 72 h [2, 9] | CC50 at 72 h [3, 10] | EC50 (Cryptosporidium parvum; [13]) | EC50 [1, 14] | other results |
| --- | --- | --- | --- | --- | --- | --- | --- | --- | --- |
| O=c1[nH]c(=O)n([C@H]2C[C@H](O)[C@@H](CO)O2)cc1F [5-fluoro-2'-deoxyuridine; Floxuridine, 5-fluoro-2'-deoxyuridine] | 0.017 µM | 0.0172 µM | 0.0182 µM |  |  |  |  |  | EC99 against C. parvum (Cryptosporidium parvum): 0.1 µM; CC50 at 48 h (in vitro): 154 nM; CC50 at 72 h [2]: 0.0471 µM; CC50 at 72 h [3]: 0.214 µM; EC50 (C. parvum [4]; read-out: Post-wash EC50): 9.4 nM; EC50 (C. parvum [4]; read-out: Pre-wash EC50): 53 nM; inhibition of C. parvum proliferation after compound removal by repeated washes (C. parvum [4]; host cell pre-treatment, dose-response): near equipotent inhibition; inhibition of C. parvum proliferation, every 3-h time point of the asexual life cycle (C. parvum [5]; treated at EC99 for 3 h, washout, read at 48 hpi): strong inhibition of growth across all time points |
| OC1CCCC2Nc3nonc3NC(c3ccc(Cl)cc3Cl)C12 (stereo not drawn) [GHCDL-1] | 1.42 µM |  | 2.82 µM | > 12500 nM | > 20 µM | > 20 µM |  |  |  |
| Cc1csc(NCC(O)c2c[nH]c3ccccc23)n1 (stereo not drawn) [GHCDL-2] | 0.293 µM |  | 0.946 µM | > 12500 nM | > 20 µM | > 20 µM |  |  |  |
| Cn1c2ccccc2c2c3c(c4c5ccccc5n(CCC#N)c4c21)CNC3O (stereo not drawn) [Gö 6976] | 0.0025 µM | 0.00245 µM | 0.00496 µM | > 12500 nM | 0.124 µM | > 20 µM |  |  |  |
| CC[C@@]1([C@@H]2O[C@@H]([C@H]3O[C@@](O)(CO)[C@H](C)C[C@@H]3C)C[C@@H]2C)CC[C@H]([C@]2(C)CC[C@]3(C[C@H](O)[C@@H](C)[C@@H]([C@@H](C)[C@@H](OC)[C@H](C)C(=O)O)O3)O2)O1 [Monensin sodium] | 0.007 µM | 0.00704 µM |  |  |  |  |  |  | EC50 ([1]; Cryptosporidium hominis, HCT-8, 48 h): 0.0103 µM; CC50 at 48 h (in vitro): > 12500 nM; CC50 at 72 h [2, 11]: 0.516 µM; CC50 at 72 h [3, 12]: 1.65 µM |
| Oc1ccc(Cl)cc1NC(S)NC(O)c1cccc(Br)c1 (stereo not drawn) [NSC215721] |  | 0.278 µM | 0.176 µM | > 12500 nM | > 20 µM | > 20 µM |  |  |  |
| COc1cc(Nc2ncc(F)c(Nc3ccc4c(n3)NC(O)C(C)(C)O4)n2)cc(OC)c1OC (stereo not drawn) [R406] |  | 0.254 µM | 0.647 µM | > 12500 nM | > 20 µM | 0.596 µM |  |  |  |
| Momelotinib [Momelotinib; CYT-387] |  |  |  |  |  |  | 0.37 µM | 0.389 µM | CC50 (HCT-8 (Host cells)): 6.05 µM; CC50 (HEK293T): 19 µM; CC50 (HepG2): 7.76 µM |
| Nitazoxanide |  |  |  |  |  |  | 2.84 µM | 2.82 µM | EC50 (Cryptosporidium parvum; HCT-8 cells, read-out: EC50 against C. parvum): 2.8 µM; EC99 against C. parvum (Cryptosporidium parvum): 8 µM; CC50 (HCT-8 (Host cells); [15]): > 10 µM; CC50 (HEK293T; [11]): > 48 µM; CC50 (HepG2; [12]): > 48 µM; inhibition of parasite growth at all time points other than 10–13 h post infection (C. parvum [5]; 3-h treatment then washout, even at 3×EC99): < 60% |
| Puromycin |  |  |  |  |  |  | 0.482 µM | 0.742 µM | CC50 (HCT-8 (Host cells); [15]): 3.15 µM; CC50 (HEK293T; [11]): 0.519 µM; CC50 (HepG2; [12]): 1.13 µM |
| Rocilinostat [Rocilinostat; ACY-1215] |  |  |  |  |  |  | 0.356 µM | 0.451 µM | CC50 (HCT-8 (Host cells)): 11.4 µM; CC50 (HEK293T): 12.1 µM; CC50 (HepG2): 0.849 µM |
| Vorinostat [Vorinostat; SAHA] |  |  |  |  |  |  |  |  | CC50 (HCT-8 (Host cells)): 1.84 µM; CC50 (HEK293T): 4.27 µM; CC50 (HepG2): 1.07 µM |
